Measurements from the SangsterLogP compilation.

Assays:
[1] = not given; remark: listed apart in the source

logP | logP [1] | SMILES
1.96 | – | c1ccc(-c2cccc(-c3ccccn3)n2)nc1
– | 3.75 | c1csc(-c2cccs2)c1
7.71 | – | c1ccc2c(c1)cc1ccc3cccc4c5ccccc5c2c1c34
2.26 | – | c1ccc2c(c1)CCO2
– | 1.67 | c1ccc(-c2ccccn2)nc1
5.84 | – | c1ccc2c(c1)c1ccccc1c1ccccc21
7.04 | – | c1cc2ccc3ccc4ccc5cccc6c(c1)c2c3c4c56
2.53 | – | c1ccc2occc2c1
5.07 | – | C1=Cc2ccc3c4c(ccc1c24)C=C3
1.33 | – | c1cc(-c2ccncc2)ccn1
– | 4.23 | c1ccc2c(c1)Cc1ccccc1O2
6.44 | – | c1ccc2c(c1)c1cccc3ccc4cccc2c4c31
8.39 | – | c1ccc2c(c1)c1ccccc1c1c3ccccc3c3ccccc3c21
1.93 | – | c1cnc2c(c1)ccc1cccnc12
4.6 | – | c1ccc(-c2cccc(-c3ccccc3)n2)cc1
– | 1.63 | c1ccc2c(c1)COC2
5.08 | – | c1ccc2cc3c(cc2c1)oc1ccccc13
6.63 | – | c1cc2c3c(c1)ccc1ccc4cccc-2c4c13
7.11 | – | c1ccc2c(c1)ccc1c2ccc2ccc3ccccc3c21
7.11 | – | c1ccc2c(c1)ccc1c2ccc2c3ccccc3ccc21
– | 4.47 | c1ccc2c(c1)Sc1ccccc1S2
7.11 | – | c1ccc2cc3c4ccccc4c4ccccc4c3cc2c1
8.46 | – | c1ccc(-c2c3ccccc3c(-c3ccccc3)c3ccccc23)cc1
-0.05 | – | c1cnccn1
7.04 | – | c1cc2ccc3cc4cccc5ccc6cc(c1)c2c3c6c54
7.11 | – | c1ccc2cc3c(ccc4c5ccccc5ccc34)cc2c1
3 | – | c1ccc(-c2cc3cccnc3c3ncccc23)cc1

SMILES | logP | logP [1]
c1ccc2cc3c(cc2c1)sc1ccccc13 | – | 5.07
c1ccc2sccc2c1 | – | 3.26
c1ccc2c(c1)ccc1c3ccc4ccccc4c3[nH]c21 | 5.89 | –
c1cnc2c(c1)ccc1ncccc12 | 1.93 | –
c1ccc2cc3cc4cc5ccccc5cc4cc3cc2c1 | 7.11 | –
c1ccc2c(c1)Oc1ccccc1O2 | – | 4.19
c1ccc2c(c1)ccc1ncccc12 | 3.25 | –
c1ccc2c(c1)ccc1cccnc12 | 3.25 | –
